The target of one experiment is T1, RARβ (Homo sapiens, UniProt P10826).
T1 sequence (P10826 1-455): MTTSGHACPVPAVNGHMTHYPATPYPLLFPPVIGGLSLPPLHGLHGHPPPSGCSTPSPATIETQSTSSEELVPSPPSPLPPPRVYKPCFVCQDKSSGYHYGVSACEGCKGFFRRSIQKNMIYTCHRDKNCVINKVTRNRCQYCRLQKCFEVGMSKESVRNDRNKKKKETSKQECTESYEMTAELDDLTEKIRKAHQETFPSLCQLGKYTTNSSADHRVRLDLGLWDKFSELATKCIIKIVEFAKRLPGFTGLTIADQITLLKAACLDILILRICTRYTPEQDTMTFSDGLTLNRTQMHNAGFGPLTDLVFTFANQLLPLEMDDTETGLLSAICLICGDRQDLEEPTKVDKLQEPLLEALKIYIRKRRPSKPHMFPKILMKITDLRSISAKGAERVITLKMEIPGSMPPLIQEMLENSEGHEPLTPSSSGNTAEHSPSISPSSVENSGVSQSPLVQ
Description: Ligand binding assay, RARβ. Conditions: read-out: Kd RABβ. An excerpt: (§1) A holoreceptor transactivation assay and a ligand binding assay which measure the antagonist/agonist like activity of the compounds of the invention, or their ability to bind to the several retinoid receptor subtypes, respectively, are described in published PCT Application No. WO WO93/11755 (particularly on pages 30-33 and 37-41) published on Jun. 24, 1993, the specification of which is also incorporated herein by reference. A detailed experimental procedure for holoreceptor transactivations has been described by Heyman et al. Cell 1992, 68, 397-406; Allegretto et al. J. Biol. Chem. 1993 268, 26625-26633, and Mangelsdorf et al. The Retinoids: Biology, Chemistry and Medicine, pp 319-349, Raven Press Ltd., New York, which are expressly incorporated herein by reference. The results obtained in this assay are expressed in EC50 numbers, as they are also in the chimeric receptor transactivation assay. The results of ligand binding assay are expressed in Kd numbers. (See Cheng et al. Biochemical Pharmacology 22, 3099-3108, expressly incorporated herein by reference.) Still another transactivation assay, the “PGR assay” is described in the publication Klein et al. J. Biol. Chem. 1996, 271, 22692-22696, which is expressly incorporated herein by reference, and a detailed description is also provided below. The results of the PGR assay are also expressed in EC50 numbers (nanomolar concentration).

In another experiment the target is RARα (Homo sapiens, UniProt P10276, E106G/G107S/G110V). Description: PGR assay (RAR-P-GR holoreceptor transactivation), RARα. In kind it is cell-based. Conditions: for EC50: PGR assay (transactivation), CV-1 cells, luciferase reporter; for Emax: 18 h.
Sequence of RARα (P10276 whole entry E106G/G107S/G110V): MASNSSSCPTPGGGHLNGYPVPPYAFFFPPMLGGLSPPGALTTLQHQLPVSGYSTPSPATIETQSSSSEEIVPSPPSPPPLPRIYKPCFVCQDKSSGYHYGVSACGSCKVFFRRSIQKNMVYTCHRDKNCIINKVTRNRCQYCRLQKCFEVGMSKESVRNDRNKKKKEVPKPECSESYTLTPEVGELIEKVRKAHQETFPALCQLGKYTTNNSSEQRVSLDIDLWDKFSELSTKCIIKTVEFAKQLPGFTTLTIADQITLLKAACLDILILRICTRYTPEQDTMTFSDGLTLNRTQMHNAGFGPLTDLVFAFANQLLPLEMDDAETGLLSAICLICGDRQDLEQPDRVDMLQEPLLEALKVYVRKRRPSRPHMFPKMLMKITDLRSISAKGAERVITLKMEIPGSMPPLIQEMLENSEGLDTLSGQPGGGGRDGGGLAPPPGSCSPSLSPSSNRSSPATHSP
Sequence of RARα (P19793 whole entry, further chain): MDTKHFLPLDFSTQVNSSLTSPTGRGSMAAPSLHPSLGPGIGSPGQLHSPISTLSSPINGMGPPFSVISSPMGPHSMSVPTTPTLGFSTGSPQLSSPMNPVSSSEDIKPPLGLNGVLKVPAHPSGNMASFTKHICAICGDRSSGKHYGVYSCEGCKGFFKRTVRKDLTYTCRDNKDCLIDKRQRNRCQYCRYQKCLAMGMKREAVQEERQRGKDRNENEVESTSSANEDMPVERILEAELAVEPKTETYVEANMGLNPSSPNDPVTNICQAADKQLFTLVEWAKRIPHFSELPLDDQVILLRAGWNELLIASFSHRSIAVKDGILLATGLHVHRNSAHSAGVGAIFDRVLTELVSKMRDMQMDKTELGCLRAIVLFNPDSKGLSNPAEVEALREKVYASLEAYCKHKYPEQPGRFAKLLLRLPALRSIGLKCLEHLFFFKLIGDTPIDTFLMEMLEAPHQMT
Source text: as §1
RAR-P-GR holoreceptor Transactivation Assay
CV-1 cells (4×10^5 cells/well) were transiently transfected with the luciferase reporter plasmid MTV-4(R5G)-Luc (0.7 μg/well) containing four copies of the R5G retinoid DNA response element along with the RXRα expression plasmid pRS-hRXRa (0.1 μg/well) and one of the RAR-P-GR expression plasmids (0.05 μg/well) in 12 well plates via calcium phosphate precipitation Chen et al. Mol. Cell. Biol. 1987, 7, 2745-2752 as described by Klein et al. J. Biol. Chem. 1996, 271, 22692, referenced above. The three different RAR-P-GR expression plasmids, pRS-RARα-P-GR, pcDNA3-RARβ-P-GR and pcDNA3-RARγ-P-GR, express RARα, RARβ and RARγ receptors, respectively, which contain modified DNA binding domains such that their “P-boxes” have been altered to that of the glucocorticoid receptor. These RAR-P-GR receptors bind to DNA as heterodimeric complexes with RXR. Specifically, the RAR-P-GR receptors bind retinoic acid response elements designated R5G, comprised of two RAR half sites (nucleotide sequence 5′-GGTTCA-3′) separated by 5 base pairs in which the 3′-half site has been modified to that of a glucocorticoid receptor half site, 5′-AGAACA-3′. To allow for various in transfection efficiency a β-galactosidase expression plasmid (0.01 μg/well) was used as an internal control. Alternatively, the assay was performed in a 96-well microtiter plate format (5000 cells/well) in a manner which was identical to that described above except ⅕ of the amount of the DNA-calcium phosphate precipitant (20 μl instead of 100 Al) was applied to each well. Eighteen hours after introduction of the DNA precipitants, cells were rinsed with phosphate buffered saline (PBS) and fed with D-MEM (Gibco-BRL) containing 10% activated charcoal extracted fetal bovine serum (Gemini Bio-Products). After rinsing with PBS cells were lysed with luciferase activity was measured as previously described in de Wet Mol. Cell. Biol. 1987, 7, 725-737. Luciferase values represent the mean±SEM of triplicate determinations normalized to β-galactosidase activity. The results of the PGR assay are also expressed in EC50 numbers (nanomolar concentration).

The next experiment concerns the target T2, RARγ (Homo sapiens, UniProt P13631).
T2 sequence (P13631 1-454): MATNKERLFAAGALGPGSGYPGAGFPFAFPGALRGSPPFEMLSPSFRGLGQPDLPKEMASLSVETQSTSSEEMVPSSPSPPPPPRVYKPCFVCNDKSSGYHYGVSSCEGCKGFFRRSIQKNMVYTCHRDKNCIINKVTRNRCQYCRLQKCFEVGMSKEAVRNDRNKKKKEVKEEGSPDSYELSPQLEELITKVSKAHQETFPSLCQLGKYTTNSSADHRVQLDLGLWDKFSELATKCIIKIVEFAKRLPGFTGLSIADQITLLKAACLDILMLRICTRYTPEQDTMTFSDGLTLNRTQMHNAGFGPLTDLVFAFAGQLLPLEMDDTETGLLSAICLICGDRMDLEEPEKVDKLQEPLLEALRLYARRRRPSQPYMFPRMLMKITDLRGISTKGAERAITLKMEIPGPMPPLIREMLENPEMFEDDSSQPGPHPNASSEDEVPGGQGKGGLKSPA
Description: Ligand binding assay, RARγ.
Source text: as §1

Setting [1] is: efficiency relative to all-trans-retinoic acid, PGR assay.

We go through four molecules from US6660755B2, “Substituted diaryl or diheteroaryl methans, ethers and amines having retinoid agonist, antagonist or inverse agonist type biological activity” (Allergan, Inc., priority 1997, dated 2003).

`CC(C)(C)c1ccc(C#Cc2ccc(C(=O)O)cn2)cc1Oc1ccc(C(F)(F)F)cc1` [Compound 6, 6-[[4′-tert-Butyl-3′-(4″-trifluomethyl)phenoxy]phenylethynyl]-3-nicotinic Acid]: the results for the Kd at RARβ and on RARγ were 113 nM and 317 nM, respectively. Besides, on RARα, the EC50 (in general, the concentration needed to bring the measured effect to its halfway point) is > 10000 nM. Further, on RARα (setting [1]), the “% Efficiency RARα” value is 0%.
For the molecule `COC(=O)c1ccc(Oc2cc(C#Cc3ccc(C(=O)O)c(F)c3)ccc2C(C)(C)C)cc1` [Compound 10, 4-[[4′-tert-Butyl-3′-(4″-carbomethoxy)phenoxy]phenylethynyl]-2-fluorobenzoic Acid], the figures for the Kd at RARβ and on RARγ were 14 nM and 66 nM, respectively. For the same molecule, at RARα (setting [1]), the Emax (commonly the size of the effect at its maximum, as opposed to the concentration needed) was found to be 0%. For the same molecule, on RARα, the EC50 was > 10000 nM.
Regarding `CC(C)(C)c1ccc(C#Cc2ccc(C(=O)O)c(F)c2)cc1Oc1ccc([N+](=O)[O-])cc1` [Compound 11, 4-[[4′-tert-Butyl-3′-(4″-nitro)phenoxy]phenylethynyl]-2-fluoro-benzoic Acid], the Kd (usually the constant that tells how readily two partners part at equilibrium) was found to be 34 nM at RARβ and 112 nM at RARγ. This molecule also gave an Emax on RARα (setting [1]) of 0%. Moreover, the EC50 on RARα is > 10000 nM.
For `CC(C)(C)c1ccc(C(=O)Nc2ccc(C(=O)O)c(F)c2)cc1Oc1ccc(C(F)(F)F)cc1` [Compound 13, 4-[[4′-tert-Butyl-3′-(4″-trifluoromethyl)phenoxy]benzoylamino]-2-fluorobenzoic Acid], the Kd at RARβ is 4570 nM; at RARγ it was 5690 nM. Moreover, the Emax at RARα (setting [1]) came to 0%. The EC50 at RARα was > 10000 nM.
